# From patent US11530244B2, “Cyclic polypeptides for PCSK9 inhibition” (priority 2018, dated 2022)
# Starred links: 1 amine or outer side, 2 acyl side, 3 side chain; linkers in the order of their positions; H or OH if unused. Positions of bridges follow the written chain, without caps; N, C: chain ends. Non-standard residues stand in square brackets, D forms with d. Residues, ends and D or L forms follow the SMILES beside them. *: point of attachment. NHCH2C6H4(p)CH2CH2NH = c1cc(CN[*:1])ccc1CCN[*:2]; Ala(imidazol-2-yl) = N[C@@H](Cc1ncc[nH]1)C(=O)O; Phe(4-COOH) = N[C@@H](Cc1ccc(C(=O)O)cc1)C(=O)O; Trp(5-F) = N[C@@H](Cc1c[nH]c2ccc(F)cc12)C(=O)O; Trp(6-F) = N[C@@H](Cc1c[nH]c2cc(F)ccc12)C(=O)O; Phe(4-CH2NH2) = NCc1ccc(C[C@H](N)C(=O)O)cc1; X3 = O=C(CCSCc1cc(F)cc(CSCCN[*:1])c1)[*:2]; X33 = CC(C)C(N[*:1])c1ncc(C(=O)[*:2])[nH]1; Lys(Me3) = C[N+](C)(C)CCCC[C@H](N)C(=O)O; Pro(cis-4-F) = O=C(O)[C@@H]1C[C@H](F)CN1; X4 = O=C(CCSCc1cccc(CSCCN[*:1])c1)[*:2]; X64 = C[C@H](N[*:1])c1ncc(C(=O)[*:2])s1; mXylylene = c1cc(C[*:1])cc(C[*:2])c1; AEF = NCCOc1ccc(C[C@H](N)C(=O)O)cc1; Adipoyl = O=C(CCCCC(=O)[*:2])[*:1]; Lys(Me2) = CN(C)CCCC[C@H](N)C(=O)O; X34 = O=C(CCC1CCN([*:1])CC1)[*:2]; aThr = C[C@H](O)[C@H](N)C(=O)O; Aoc(2) = CCCCCC[C@H](N)C(=O)O; Suc = O=C(CCC(=O)[*:2])[*:1]; X63 = c1ncc(C[*:2])nc1C[*:1]; αMeP = C[C@@]1(C(=O)O)CCCN1; Dab = NCC[C@H](N)C(=O)O; X2 = O=C(C[*:2])[*:1]; Ahx = NCCCCCC(=O)O; X62 = O=C(C(F)F)*; Mpa = O=C(O)CCS
# Target: PCSK9 (Homo sapiens (Human), UniProt Q8NBP7)
# Assay: PCSK9 Alexa FRET Standard assay (displacement of AlexaFluor647 tagged cyclic peptide Reagent A)
# Assay type: binding
# Details: IC50, PCSK9 Alexa FRET Standard assay, 0.5 nM PCSK9, 20 nM AF cyclic peptide Reagent A
# Description: A solution containing 1 nM biotinylated PCSK9+2.5 nM Lance Streptavidin Europium (Strep-Eu) was made in 50 mM HEPES pH 7.4, 0.15 M NaCl, 5 mM CaCl2), 0.01% BSA, and 0.01% Surfactant P20. A separate solution containing 40 nM of the AlexaFluor tagged cyclic peptide was made in the same buffer system. An Echo was used to transfer 0.750 ul of compound to an assay plate followed by the addition of 15 ul of PCSK9+Stept-Eu and 15 ul of AF peptide. The final assay volume was 30.750 ul containing 0.5 nM PCSK9, 1.25 nM Strep-Eu, and 20 nM AF cyclic peptide. The reaction was incubated at room temperature for at least two hours prior to fluorescence measurements using an Envision Multilabel Reader. IC50 values were determined by fitting data to a sigmoidal dose-response curve using nonlinear regression. Ki was then calculated from the IC50 and the KD of AF cyclic peptide. Counts (B-counts) of the europium-labeled PCSK9 were followed to observe if compounds were […]. A fall off of the B-counts likely indicated a false positive of inhibition. Data from this procedure was reported as “A=‘numerical value’ (nanomolar)”
# Sequence of PCSK9 (Q8NBP7 153-692): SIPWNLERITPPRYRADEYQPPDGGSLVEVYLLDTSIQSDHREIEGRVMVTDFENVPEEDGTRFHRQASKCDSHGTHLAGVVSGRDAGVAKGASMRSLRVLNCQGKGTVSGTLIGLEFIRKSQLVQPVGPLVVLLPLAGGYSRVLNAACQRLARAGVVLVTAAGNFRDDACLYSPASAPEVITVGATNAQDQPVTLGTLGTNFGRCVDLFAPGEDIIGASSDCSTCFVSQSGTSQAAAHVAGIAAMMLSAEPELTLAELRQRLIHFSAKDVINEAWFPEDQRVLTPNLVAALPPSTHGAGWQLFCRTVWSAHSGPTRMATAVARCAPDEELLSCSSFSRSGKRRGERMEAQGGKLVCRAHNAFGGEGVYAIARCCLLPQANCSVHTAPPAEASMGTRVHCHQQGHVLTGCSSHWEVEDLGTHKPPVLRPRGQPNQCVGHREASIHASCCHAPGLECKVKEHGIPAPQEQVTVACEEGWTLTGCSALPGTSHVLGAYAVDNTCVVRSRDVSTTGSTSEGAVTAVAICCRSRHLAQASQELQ
row,SMILES,IC50 [µM]
1,COc1ccc(C[C@@H]2NC(=O)[C@H]([C@@H](C)O)NC(=O)[C@@H]3C[C@H](F)CN3C(=O)[C@H](Cc3c[nH]c4ccc(F)cc34)NC(=O)[C@H](Cc3c[nH]c4ccc(F)cc34)NC(=O)[C@@H](C)NC(=O)[C@H](CCCCN)NC(=O)[C@@H](NC(=O)C(F)F)CC(=O)NCCOc3ccc(cc3)C[C@@H](C(N)=O)NC(=O)[C@]3(C)CCCN3C2=O)cc1 [Compound 113] (X62-DK[dA][Trp(5-F)][Trp(5-F)][Pro(cis-4-F)]TY(Me)[αMeP][AEF]-NH2; lactam 1-10),21 to 50

# Same assay, conditions: PCSK9 Alexa FRET Standard assay, 0.5 nM PCSK9, 20 nM AF cyclic peptide Reagent A; read-out: IC50
row,SMILES,IC50 [µM]
1,CC(=O)N[C@H]1CCNC(=O)COc2ccc(cc2)C[C@@H](C(N)=O)NC(=O)[C@]2(C)CCCN2C(=O)[C@H](Cc2ccc(O)cc2)NC(=O)[C@H](Cc2cnc[nH]2)NC(=O)[C@H](CC(=O)O)NC(=O)[C@H](Cc2c[nH]c3ccc(F)cc23)NC(=O)[C@H](Cc2c[nH]c3ccc(F)cc23)NC(=O)CNC(=O)[C@H](C)NC1=O [Compound 352] (Ac-[Dab]AG[Trp(5-F)][Trp(5-F)]DHY[αMeP]Y-NH2; linker 1-10 via X2),21 to 50
2,COc1ccc(C[C@@H]2NC(=O)[C@H](Cc3ncc[nH]3)NC(=O)[C@H](CC(=O)O)NC(=O)[C@H](Cc3c[nH]c4ccc(F)cc34)NC(=O)[C@H](Cc3c[nH]c4ccc(F)cc34)NC(=O)[C@@H](C)NC(=O)[C@H](CCC(N)=O)NC(=O)CCSCc3cccc(c3)CSCCNC(=O)[C@]3(C)CCCN3C2=O)cc1 [Compound 446] (cyclo(D[Ala(imidazol-2-yl)]Y(Me)[αMeP][X4]Q[dA][Trp(5-F)][Trp(5-F)])),1 to 12.1
3,COc1ccc(C[C@@H]2NC(=O)[C@H](Cc3ncc[nH]3)NC(=O)[C@H](CC(=O)O)NC(=O)[C@H](Cc3c[nH]c4ccc(F)cc34)NC(=O)[C@H](Cc3c[nH]c4ccc(F)cc34)NC(=O)[C@@H](C)NC(=O)[C@H](CCCC[N+](C)(C)C)NC(=O)CCSCc3cc(F)cc(c3)CSCCNC(=O)[C@]3(C)CCCN3C2=O)cc1 [Compound 462] (cyclo(D[Ala(imidazol-2-yl)]Y(Me)[αMeP][X3][Lys(Me3)][dA][Trp(5-F)][Trp(5-F)])),1 to 12.1
4,COc1ccc(C[C@@H]2NC(=O)[C@H](Cc3cnc[nH]3)NC(=O)[C@H](CC(=O)O)NC(=O)[C@H](Cc3c[nH]c4ccc(F)cc34)NC(=O)[C@H](Cc3c[nH]c4ccc(F)cc34)NC(=O)[C@@H](C)NC(=O)[C@H](NC(C)=O)CCC(=O)NCc3ccc(cc3)CCNC(=O)C[C@@H](C(N)=O)NC(=O)[C@]3(C)CCCN3C2=O)cc1 [Compound 451] (Ac-[dE][dA][Trp(5-F)][Trp(5-F)]DHY(Me)[αMeP]D-NH2; linker 1-9 via NHCH2C6H4(p)CH2CH2NH),0.1 to 1
5,COc1ccc(C[C@@H]2NC(=O)[C@H](Cc3cnc[nH]3)NC(=O)[C@H](CC(=O)O)NC(=O)[C@H](Cc3c[nH]c4ccc(F)cc34)NC(=O)[C@H](Cc3c[nH]c4ccc(F)cc34)NC(=O)[C@@H](C)NC(=O)[C@H](CCCCN)NC(=O)[C@@H](NC(C)=O)CC(=O)NCc3ccc(cc3)CCNC(=O)[C@]3(C)CCCN3C2=O)cc1 [Compound 411] (Ac-DK[dA][Trp(5-F)][Trp(5-F)]DHY(Me)[αMeP]; linker 1-C via NHCH2C6H4(p)CH2CH2NH),1 to 12.1
6,COc1ccc(C[C@@H]2NC(=O)[C@H]([C@@H](C)O)NC(=O)[C@@H]3C[C@H](F)CN3C(=O)[C@H](Cc3c[nH]c4ccc(F)cc34)NC(=O)[C@H](Cc3c[nH]c4ccc(F)cc34)NC(=O)[C@@H](C)NC(=O)[C@H](CCCCN)NC(=O)[C@@H](NC(C)=O)CC(=O)NCc3ccccc3C[C@@H](C(N)=O)NC(=O)[C@]3(C)CCCN3C2=O)cc1 [Compound 079],1 to 12.1
7,COc1ccc(C[C@@H]2NC(=O)[C@H](Cc3cnc[nH]3)NC(=O)[C@H](CC(=O)O)NC(=O)[C@H](Cc3c[nH]c4ccc(F)cc34)NC(=O)[C@H](Cc3c[nH]c4ccc(F)cc34)NC(=O)[C@@H](C)NC(=O)[C@H](CCCCN)NC(=O)[C@@H](NC(C)=O)CC(=O)NCc3ccc(cc3)C[C@@H](C(N)=O)NC(=O)[C@]3(C)CCCN3C2=O)cc1 [Compound 348] (Ac-DK[dA][Trp(5-F)][Trp(5-F)]DHY(Me)[αMeP][Phe(4-CH2NH2)]-NH2; lactam 1-10),21 to 50
8,CCCCCC[C@@H]1NC(=O)CCSCc2cccc(c2)CSCCNC(=O)[C@]2(C)CCCN2C(=O)[C@H](Cc2ccc(OC)cc2)NC(=O)[C@H](Cc2ncc[nH]2)NC(=O)[C@H](CC(=O)O)NC(=O)[C@H](Cc2c[nH]c3ccc(F)cc23)NC(=O)[C@H](Cc2c[nH]c3ccc(F)cc23)NC(=O)[C@@H](C)NC1=O [Compound 442] (cyclo([Aoc(2)][dA][Trp(5-F)][Trp(5-F)]D[Ala(imidazol-2-yl)]Y(Me)[αMeP][X4])),0.00011 to 0.1
9,C[C@@H]1NC(=O)[C@H](Cc2c[nH]c3ccc(F)cc23)NC(=O)[C@H](Cc2c[nH]c3ccc(F)cc23)NC(=O)[C@@H](C)NC(=O)[C@H](CCCCN)NC(=O)CCSCc2cccc(c2)CSC[C@@H](C(N)=O)NC(=O)[C@]2(C)CCCN2C(=O)[C@H](Cc2ccc(O)cc2)NC(=O)C2=CN=C1S2 [Compound 460] ([Mpa]K[dA][Trp(5-F)][Trp(5-F)][X64]Y[αMeP]C-NH2; linker 1-9 via mXylylene),0.00011 to 0.1
10,COc1ccc(C[C@@H]2NC(=O)[C@H](Cc3cnc[nH]3)NC(=O)[C@H](CC(=O)O)NC(=O)[C@H](Cc3c[nH]c4ccc(F)cc34)NC(=O)[C@H](Cc3c[nH]c4ccc(F)cc34)NC(=O)[C@@H](C)NC(=O)CCC(=O)NCCOc3ccc(cc3)C[C@@H](C(N)=O)NC(=O)[C@]3(C)CCCN3C2=O)cc1 [Compound 436] ([dA][Trp(5-F)][Trp(5-F)]DHY(Me)[αMeP][AEF]-NH2; linker N-8 via Suc),21 to 50
11,COc1ccc(C[C@@H]2NC(=O)[C@H](Cc3ncc[nH]3)NC(=O)[C@H](CC(=O)O)NC(=O)[C@H](Cc3c[nH]c4ccc(F)cc34)NC(=O)[C@H](Cc3c[nH]c4ccc(F)cc34)NC(=O)[C@@H](C)NC(=O)[C@H](CCCCN(C)C)NC(=O)CCSCc3cccc(c3)CSCCNC(=O)[C@]3(C)CCCN3C2=O)cc1 [Compound 463] (cyclo(D[Ala(imidazol-2-yl)]Y(Me)[αMeP][X4][Lys(Me2)][dA][Trp(5-F)][Trp(5-F)])),0.1 to 1
12,COc1ccc(C[C@@H]2NC(=O)[C@H](Cc3cnc[nH]3)NC(=O)[C@H](CC(=O)O)NC(=O)[C@H](Cc3c[nH]c4ccc(F)cc34)NC(=O)[C@H](Cc3c[nH]c4ccc(F)cc34)NC(=O)[C@@H](C)NC(=O)CCC3CCN(CC3)C(=O)c3ccc(cc3)C[C@@H](C(N)=O)NC(=O)[C@]3(C)CCCN3C2=O)cc1 [Compound 389] ([X34][dA][Trp(5-F)][Trp(5-F)]DHY(Me)[αMeP][Phe(4-COOH)]-NH2; lactam N-9),21 to 50
13,C[C@@]12CCCN1C(=O)[C@H](Cc1ccc(O)cc1)NC(=O)CN1CCCC[C@H](NC(=O)[C@H](Cc3c[nH]c4ccc(F)cc34)NC(=O)[C@H](Cc3c[nH]c4ccc(F)cc34)NC(=O)CNC(=O)[C@H](CCCCN)NC(=O)CCSCc3cccc(c3)CSC[C@@H](C(N)=O)NC2=O)C1=O [Compound 104],21 to 50
14,COc1ccc(C[C@@H]2NC(=O)[C@H]([C@@H](C)O)NC(=O)[C@@H]3CCCN3C(=O)[C@H](Cc3c[nH]c4ccc(F)cc34)NC(=O)[C@H](Cc3c[nH]c4ccc(F)cc34)NC(=O)[C@@H](C)NC(=O)[C@H](CCCCN)NC(=O)CCSCc3cncc(n3)CSC[C@@H](C(N)=O)NC(=O)[C@]3(C)CCCN3C2=O)cc1 [Compound 090] ([Mpa]K[dA][Trp(5-F)][Trp(5-F)]PTY(Me)[αMeP]C-NH2; linker 1-10 via X63),1 to 12.1
15,COc1ccc(C[C@@H]2NC(=O)[C@H](Cc3cnc[nH]3)NC(=O)[C@H](CC(=O)O)NC(=O)[C@H](Cc3c[nH]c4cc(F)ccc34)NC(=O)[C@H](Cc3c[nH]c4ccc(F)cc34)NC(=O)[C@@H](C)NC(=O)[C@H](CCCCN)NC(=O)CCc3cn(nn3)-c3ccc(cc3)C[C@@H](C(N)=O)NC(=O)[C@]3(C)CCCN3C2=O)cc1 [Compound 368],21 to 50
16,CC(C)C1NC(=O)CCSCc2cccc(c2)CSC[C@@H](C(N)=O)NC(=O)[C@]2(C)CCCN2C(=O)[C@H](Cc2ccc(O)cc2)NC(=O)[C@H](Cc2c[nH]cn2)NC(=O)[C@H](CC(=O)O)NC(=O)[C@H](Cc2c[nH]c3ccc(F)cc23)NC(=O)[C@H](Cc2c[nH]c3ccc(F)cc23)NC(=O)c2cnc1[nH]2 (stereo partly shown) [Compound 449] ([Mpa][X33][Trp(5-F)][Trp(5-F)]DHY[αMeP]C-NH2; linker 1-9 via mXylylene),0.1 to 1
17,COc1ccc(C[C@@H]2NC(=O)[C@H]([C@H](C)O)NC(=O)[C@@H]3C[C@H](F)CN3C(=O)[C@H](Cc3c[nH]c4ccc(F)cc34)NC(=O)[C@H](Cc3c[nH]c4ccc(F)cc34)NC(=O)[C@@H](C)NC(=O)CCCCC(=O)NCCOc3ccc(cc3)C[C@@H](C(N)=O)NC(=O)[C@]3(C)CCCN3C2=O)cc1 [Compound 099] ([dA][Trp(5-F)][Trp(5-F)][Pro(cis-4-F)][aThr]Y(Me)[αMeP][AEF]-NH2; linker N-8 via Adipoyl),21 to 50
18,COc1ccc(C[C@@H]2NC(=O)[C@H](Cc3cnc[nH]3)NC(=O)[C@H](CC(=O)O)NC(=O)[C@H](Cc3c[nH]c4cc(F)ccc34)NC(=O)[C@H](Cc3c[nH]c4ccc(F)cc34)NC(=O)[C@@H](C)NC(=O)CCCCCNC(=O)c3ccc(cc3)C[C@@H](C(N)=O)NC(=O)[C@]3(C)CCCN3C2=O)cc1 [Compound 350] ([Ahx][dA][Trp(5-F)][Trp(6-F)]DHY(Me)[αMeP][Phe(4-COOH)]-NH2; lactam N-9),21 to 50
